Bounds are passed on as bounds.

In general, melting point refers to the temperature of the solid-liquid transition. Turning to `CCOC(=O)C(=NOC)c1csc(NC(=O)OCC(Cl)(Cl)Cl)n1`, the melting point is 125 to 128 °C. As for `O=C(O)c1ccc(NC(=O)C(CS)Cc2ccccc2)cc1O` (centres undefined), the figure is 166 to 170 °C; as for `COc1ccc(CN2C(=O)[C@@H](NC(=O)Cc3ccccc3)[C@H]2CO)c(OC)c1` (relative stereo), 152 to 154 °C; as for `O=C(O)C(=O)CC(=O)c1cn(Cc2ccccc2F)c2ccccc2c1=O`, 172 to 174 °C. As for `CCOC(=O)c1cnc2c(c(C)nc3cc(C)nn32)c1NC`, the figure is 208 to 210 °C; as for `CC(=O)C(=NNc1ccc(Oc2ccccc2)cc1)Sc1ccc(Cl)cc1`, 152 to 155 °C. With `CCCCC(=O)NC1CCN(CCNC(=O)c2nn(C(C)C)c3ccccc23)CC1` the figure was 107 to 109 °C; with `Cn1c(=O)c(-c2ccc(Cl)cc2Cl)cc2c3cc(-c4csc(N)n4)ccc3n(C)c21`, 272 to 273 °C; with `CN1Cc2ccccc2C(=O)c2cc(CC(=O)O)cc(Br)c21`, 164 to 167 °C.

For the molecule `Cc1ccc(CCC(C)NCC(O)c2cc3ccccc3o2)cc1` (centres undefined), the melting point lay in the range of 83 to 84 °C. On to `CC/C(=C(\c1ccc(/C=C/C(=O)O)cc1)c1ccc(OC(=O)c2ccno2)cc1)c1ccccc1`, for which the melting point lay within 141 to 142 °C. As for `O=C(C=C(O)c1ccccc1O)c1cn(S(=O)(=O)c2ccccc2)c2ccc(Cl)cc12`, the figure is 241 to 244 °C. As for `CON1C=Cc2ccccc2C1`, the figure is 113 to 114 °C; as for `COc1ccc2cc(CNCCNC(=O)C34CC5CC(CC(C5)C3)C4)oc2c1OC`, 206 to 207 °C. In turn, `N#Cc1cc(-c2ccoc2)c2ccc(COc3cc(F)cc(-c4ccc(Cl)cc4Cl)c3)cc2n1` had a melting point of 188 to 190 °C. As for `COc1ccc2c(c1)CCC1C2C(O)CC2(C)C(O)CCC12` (centres undefined), the figure is 161 to 162 °C.

`Cn1ncc(C(=O)N2CCCC2)c1C(=O)Nc1ccn2nc(-c3ccccc3)nc2c1`: the melting point was 210 to 215 °C. As for `O=C(c1ccc(OC23CC4CC(CC(C4)C2)C3)cc1)N1CCCC1`, the figure is 111 to 113 °C; as for `O=C(c1ccc(OS(=O)(=O)C(F)(F)F)cc1OS(=O)(=O)C(F)(F)F)c1ccc(OS(=O)(=O)C(F)(F)F)cc1OS(=O)(=O)C(F)(F)F`, 94 to 96 °C. Take `O=C1CCc2cc(Cl)c(S(=O)(=O)NCc3ccccc3)cc21`: the melting point is 228 to 231 °C.

`CCOC(=O)c1ccc2ccccc2c1` registered a melting point of 35 to 36.5 °C. As for `COc1ccc(-c2ccccc2[N+](=O)[O-])cc1`, the figure is 55 to 56 °C; as for `CNC(=NS(C)(=O)=O)NCCCSc1ncc(Br)c(NC(N)=NCC(F)(F)F)n1`, 166 to 167 °C; as for `COc1c(-c2ccccc2C)c(=O)[nH]c2ccccc12`, 208 to 210 °C.

Consider `CS(=O)(=O)Nc1cc(N)ccc1OC1CCCCC1`, for which the melting point was in the range of 152 to 154 °C. As for `CN(C)C(C)(CO)c1cccs1` (centres undefined), the figure is 68 to 70 °C; as for `CC(=O)OC1C(OC2=NN(Cc3ccccc3)C(=O)C3CC23)c2cc(C#N)ccc2OC1(C)C` (centres undefined), 149 to 151 °C. With `CCCCc1csc2ccc3[nH]c4c(c3c12)CN(Cc1ccccc1)CC4` the figure was 127 to 128 °C; with `C=CCc1c(F)ccc2c3c([nH]c12)C(CC)(CC(=O)O)OCC3` (centres undefined), 123 to 125 °C.

Molecule `O=C(COCc1ccccc1)NC(C(=O)O)c1ccccc1` (centres undefined) yielded a melting point of 127 to 130 °C. As for `CS(=O)(=O)c1ccc(CN2CC3(COc4cc5c(cc43)OCO5)c3ccccc32)o1` (centres undefined), the figure is 177 to 179 °C; as for `C=C(c1ccc(N(C)C)cc1)c1ccc(N(C)C)cc1`, 115 °C; as for `CCOC(=O)c1cn(N=C(C)C)c2c(F)c(F)c(F)cc2c1=O`, 166 °C. Molecule `COc1cc(NS(=O)(=O)CCCCl)cc(OC)c1` gave a melting point of 68 to 71 °C. With `C=Cc1cn(-c2c(Cl)cc(C(F)(F)F)cc2Cl)cc1C#N` the figure was 55 to 60 °C; with `CCc1cccc(C)c1CNc1nc(OCCOC)cc(NC)c1[N+](=O)[O-]`, 135 to 136 °C. As for `CC(C)(C)OC(=O)COc1ccc(C=O)cc1`, the figure is 56 to 57 °C; as for `COc1ccc(OC)c2c1C[C@](O)(C1(C)OCCO1)CC21SCCS1`, 143 to 145 °C.

For `COC(=O)COc1ccc2cc(CNC(=O)c3cnn(-c4ccc(Cl)cc4)c3C(F)(F)F)ccc2c1`, the melting point was 174 to 176 °C. As for `Cn1c(COc2ccc(CC3SC(=O)NC3=O)cc2)nc2ccc(Oc3ccc4cccc(NC(=O)Nc5ccc(C(F)(F)F)cc5)c4c3)cc21` (centres undefined), the figure is 250 to 254 °C. As for `COC(=O)NC1CCCCC1`, the figure is 73 to 74 °C; as for `N#Cc1ccc2[nH]cc(C3=CCC4(CC3)OCCO4)c2c1`, 158 to 160 °C; as for `O=C(Nc1ccccc1)c1sc2c([N+](=O)[O-])c(O)c(O)cc2c1Cl`, 288 °C. With `CCCCc1nc(CC(NC(C)=O)(C(=O)OCC)C(=O)OCC)c[nH]1` the figure was 80 to 92 °C; with `CCOC(=O)N[C@@H]1Cc2ccccc2[C@H]1Cl` (relative stereo), 82 to 84 °C.

In turn, `O=C(O)c1ccc(NC(=O)c2ccc(Cl)cc2)cc1` displayed a melting point of over 260 °C. On to `Cc1ccc(Cl)c2sc(O)nc12`, for which the melting point was determined as 266 °C. As for `CCC(=O)C1=C(O)CC(c2ccc3ccccc3c2)CC1=O` (centres undefined), the figure is 125 °C; as for `COc1ccc(-c2cc(CO)c(=O)n(Cc3ccc(Cl)cc3)n2)cc1F`, 165 °C. With `CCCCc1nc2cccc(C(=O)OC)c2n1Cc1ccc(-n2cccc2-c2nnn[nH]2)cc1` the figure was 186 to 187 °C; with `Oc1ccc(CSSCc2ccc(O)cc2)cc1`, 171 °C; with `CCOC(=O)c1cc2cc(C3=C(c4cnc5[nH]cc(C(=O)C(C)(C)C)c5n4)CCC3)ccc2[nH]1`, 278 to 280 °C.

`CCN(CC)c1ccc(Nc2nc(N)c(C(=O)c3ccc([N+](=O)[O-])cc3)s2)cc1`: the melting point is 220 to 221 °C.

For the molecule `Brc1cc(Cc2ccc3ccccc3c2)cc(Br)c1OCc1nnn[nH]1`, the melting point was in the range of 183 to 184 °C. With `OC1C(COCC(F)(F)F)OC(n2cnc3c(NC4CCOCC4)ncnc32)C1O` (centres undefined) the figure was 80 to 82 °C. With `COC(c1cc(-c2ccc(F)cc2)c(-c2ccc(F)cc2)n1C)(C(F)(F)F)C(F)(F)F` the figure was 108 to 110 °C; with `CCn1cc(-c2nnn[nH]2)c(=O)c2cc(F)c(N3CCN(c4ncccn4)CC3)c(OC(F)F)c21`, 265 to 268 °C. Turning to `CC(C)(C)OC(=O)N[C@@H](CC1CCCCC1)[C@@H]1C[C@@H](C2(O)CCCCC2)C(=O)O1`, the melting point was in the range of 133 to 134 °C. With `O=C(NCc1ccc(Cl)cc1)c1cnc2c(F)cc(Br)cc2c1` the figure was 254 to 255 °C; with `C=CCn1c(NNC(=O)CCCl)nc2ccccc2c1=O`, 151 to 153 °C. Consider `CC(C)(C)COc1ccc(NC(=O)c2cc3ccccc3n2CC(=O)O)cc1C#N`, for which the melting point was 194 to 195 °C. As for `Nc1ccc(-c2nc3ccc(Br)cc3s2)cc1`, the figure is 219 to 221 °C; as for `O=C(O)c1cnc2ccc(-c3ccc(Cl)cc3)cn12`, 206 °C.

For the molecule `O=C(O)COc1ccc(NC(=O)c2csc(NC(=O)NCc3ccccc3)n2)cc1C(=O)O`, the melting point was 219 °C. With `CC(=O)Nc1c(-c2ccccc2C)nc2c3ccccc3ccn12` the figure was over 270 °C; with `CCOc1cc2c(cc1OCC)C(=C(C#N)SCC(O)CN1CCOCC1)NCC2` (centres undefined), 97 °C; with `CC(C)(C#N)c1cc(C(O)c2cccnc2)cc(C(C)(C)C#N)c1` (centres undefined), 117 to 120 °C.

`c1ccc(Cn2cnc3ccc(NC4=NCCN4)cc32)cc1` registered a melting point of 174 to 175 °C. In turn, `CC(O)COc1ccc2c(c1)OC(C)(C)CC2=O` (centres undefined) had a melting point of 111 to 113 °C. With `CCOC(=O)c1cnc(Nc2cccc(C(F)(F)F)c2)[nH]c1=O` the figure was 229 to 230 °C; with `O=C(NOCc1ccccc1)c1ccc(CNC(=O)c2cn3c4c(cccc24)CCC3)cc1`, 234 to 235 °C. Consider `CCCC(CCC)C(=O)NCC(=O)CCCCCCCCCCCCN(N)C(=O)n1cc(F)c(=O)[nH]c1=O`, for which the melting point was in the range of 116 to 118 °C.

For the molecule `Cc1sc2c(=O)[nH]cnc2c1Br`, the melting point fell in the range of 320 to 322 °C. With `CC(=O)C(=CN(C)C)c1ccc(N2CCC(c3ccccc3)CC2)cc1` the figure was 93 to 100 °C; with `COC(=O)C[C@H]1C[C@@H](C=Cc2ccccc2)OC(C)(C)O1` (relative stereo), 84 to 86.5 °C.

`O=C(NC1CC1)c1cc(Nc2nc(N3CCC[C@H]3CO)nc3ccoc23)n[nH]1`: the melting point is 96.8 °C. With `CCCn1c(=O)c2nc(-c3ccc(/C=C/C(=O)O)cc3)[nH]c2n(Cc2ccccc2)c1=O` the figure was over 300 °C; with `CCCCCCCc1ccc(-c2nc(-c3ccccc3Cl)nn2C)cc1`, 64 to 67 °C. With `COC(=O)C1=NNC(C)=C(C(=O)OC)C1c1ccc(C)cc1` (centres undefined) the figure was 180 °C; with `CCCCCCc1cc2c(s1)-n1c(C)nnc1CN=C2c1ccc(C)cc1C`, 99 to 101 °C; with `CCC1=NNC(C)=C(C(=O)OCCOC)C1c1cccc([N+](=O)[O-])c1` (centres undefined), 141 °C. As to `N#Cc1cccc(NC(=O)CN2CCN(c3ncccc3C#N)CC2)c1`, the melting point was 166 to 167 °C.

Turning to `Oc1ccc(Oc2cccc(C(F)(F)F)n2)cc1`, the melting point lay in the range of 94 to 95 °C. `NC1N=CC=CC1(N)Br` (centres undefined): the melting point fell in the range of 158 to 160 °C. Molecule `CN(C)C(=O)CCCOC(=O)C(OCc1ccc(-c2ccc(Cl)cc2)cc1)(C(F)(F)F)C(F)(F)F` registered a melting point of 54 to 55 °C. With `O=c1ccocc1OCc1ccccc1` the figure was 82 to 85 °C; with `CCCCCCCCCCCCCCOc1cn(Cc2ccccc2)c(CBr)cc1=O`, 135 to 137 °C; with `CS(=O)(=O)c1ccc(Cl)c2[nH]ccc12`, 160 to 162 °C. As for `NC(=O)c1ccc(F)c2c1C=CCO2`, the figure is 189 to 190 °C.

Values taken from a melting point compilation (Tetko et al.; mined from patent text by program, amines drawn as free bases though some values may be those of a salt).
